This passage reports IC50 and melting point results from US20100305113A1, “Substituted Imidazopyridazines as Lipid Kinase Inhibitors” (priority 2007, published 2010).

pIC50: −log10 of the molar value.

As a reminder, the pIC50 is −log10 of the IC50, conventionally taken in molar units. A word on the melting point: it is the temperature, or range, at which the solid turns liquid.

One series deals with T1, PI3K alfa (Homo sapiens, UniProt P42336).
T1 construct: p85(iSH2) fusion partner (same polypeptide; see partner chain) (N); 12x Gly linker (N); His tag (C); made in house; host or cells: baculovirus; Tn5 (Trichoplusia ni) or TiniPro insect cells
Put plainly: PI3K alfa enzymatic assay (Kinase-Glo luminescence). The series is classed as biochemical. The note with it: Enzymatic Data. In a few lines: (§1)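 Kinase-Glo ATP-depletion luminescence with 1 μM ATP and 10 μg/mL phosphatidylinositol in pH 7.5 Tris buffer; 10 nM PI3Kα incubated 60 min, 150 nM PI3Kγ 120 min, at room temperature. IC50 by 4-parameter logistic fit over 8 concentrations.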
For orientation: In Kinase-Glo more light means more ATP remaining.

Another series concerns the target T2, PI3K beta (Homo sapiens, UniProt P42338).
T2 construct: for the full-length p110-b subunit are generated and fused by overlapping PCR; p85(iSH2) fusion partner (same polypeptide; see partner chain) (N); Gly linker (N); His tag (C); made in house; host or cells: baculovirus; Tn5 (Trichoplusia ni) or TiniPro insect cells
Put plainly: PI3K beta enzymatic assay (Kinase-Glo luminescence). It counts as biochemical. The note with it: Enzymatic Data. In a few lines: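 Full-length p110β with p85 iSH2 (His-tagged) at 25 nM, 10 μg/mL phosphatidylinositol and 1 μM ATP, in pH 7.5 Tris with 3 mM MgCl2, 60 min at room temperature. Remaining ATP read by Kinase-Glo luminescence; IC50 from 4-parameter logistic fit over 8 concentrations.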

Another series deals with T3, PI3K delta (Homo sapiens, UniProt O00329).
T3 construct: for the full-length p110-d subunit are generated and fused by overlapping PCR; p85(iSH2) fusion partner (same polypeptide; see partner chain) (N); Gly linker (N); His tag (C); made in house; host or cells: baculovirus; Tn5 (Trichoplusia ni) or TiniPro insect cells
The series can be described thus: PI3K delta enzymatic assay (Kinase-Glo luminescence). It counts as biochemical. The note with it: Enzymatic Data. In a few lines:
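10 nM PI3Kδ p85(iSH2)-Gly linker-full-length p110δ His-tagged construct with 10 µg/mL phosphatidylinositol and 1 µM ATP. Buffer: 10 mM Tris pH 7.5, 3 mM MgCl2, 50 mM NaCl, 0.05% CHAPS, 1 mM DTT; 60 min RT. Kinase-Glo luminescence; IC50 from 4-parameter logistic fit over 8 concentrations.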

Another series addresses T4, PI3K gamma (Homo sapiens, UniProt P48736).
T4 construct: His tag (C); made in house; host or cells: construct from Roger Williams lab (MRC LMB); baculovirus (pVL1393); Tn5 (Trichoplusia ni) or TiniPro insect cells
The series can be described thus: PI3K gamma enzymatic assay (Kinase-Glo luminescence). The series is classed as biochemical. The note with it: Enzymatic Data. In a few lines:
as §1

T4 sequence (P48736 144-1102 limits assumed): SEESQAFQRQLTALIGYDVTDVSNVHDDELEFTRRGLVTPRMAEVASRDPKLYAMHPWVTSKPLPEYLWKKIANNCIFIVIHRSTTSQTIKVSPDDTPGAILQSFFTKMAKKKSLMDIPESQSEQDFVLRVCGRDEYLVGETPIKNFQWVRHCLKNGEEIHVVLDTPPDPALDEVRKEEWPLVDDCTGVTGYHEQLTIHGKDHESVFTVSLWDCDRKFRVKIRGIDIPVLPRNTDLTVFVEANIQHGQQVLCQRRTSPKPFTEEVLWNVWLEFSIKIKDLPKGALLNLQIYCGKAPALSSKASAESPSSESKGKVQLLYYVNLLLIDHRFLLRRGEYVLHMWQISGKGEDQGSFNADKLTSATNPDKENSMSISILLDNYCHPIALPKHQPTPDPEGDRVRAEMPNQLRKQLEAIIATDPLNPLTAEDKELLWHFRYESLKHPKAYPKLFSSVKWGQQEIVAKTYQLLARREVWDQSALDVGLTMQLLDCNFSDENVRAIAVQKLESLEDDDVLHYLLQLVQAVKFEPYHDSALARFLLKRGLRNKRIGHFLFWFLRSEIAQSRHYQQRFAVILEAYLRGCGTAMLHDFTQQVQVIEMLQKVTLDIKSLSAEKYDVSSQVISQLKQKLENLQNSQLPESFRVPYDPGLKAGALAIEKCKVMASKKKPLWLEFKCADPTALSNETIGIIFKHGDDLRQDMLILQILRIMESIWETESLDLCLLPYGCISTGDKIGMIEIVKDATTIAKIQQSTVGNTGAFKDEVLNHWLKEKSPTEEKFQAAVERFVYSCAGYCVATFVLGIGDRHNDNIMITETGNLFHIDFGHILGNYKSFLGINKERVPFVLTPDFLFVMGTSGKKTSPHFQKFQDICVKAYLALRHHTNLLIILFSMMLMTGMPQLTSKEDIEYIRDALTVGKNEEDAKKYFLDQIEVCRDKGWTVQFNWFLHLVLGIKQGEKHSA
T1 sequence (P42336 with tags, fused parts or gaps limits assumed): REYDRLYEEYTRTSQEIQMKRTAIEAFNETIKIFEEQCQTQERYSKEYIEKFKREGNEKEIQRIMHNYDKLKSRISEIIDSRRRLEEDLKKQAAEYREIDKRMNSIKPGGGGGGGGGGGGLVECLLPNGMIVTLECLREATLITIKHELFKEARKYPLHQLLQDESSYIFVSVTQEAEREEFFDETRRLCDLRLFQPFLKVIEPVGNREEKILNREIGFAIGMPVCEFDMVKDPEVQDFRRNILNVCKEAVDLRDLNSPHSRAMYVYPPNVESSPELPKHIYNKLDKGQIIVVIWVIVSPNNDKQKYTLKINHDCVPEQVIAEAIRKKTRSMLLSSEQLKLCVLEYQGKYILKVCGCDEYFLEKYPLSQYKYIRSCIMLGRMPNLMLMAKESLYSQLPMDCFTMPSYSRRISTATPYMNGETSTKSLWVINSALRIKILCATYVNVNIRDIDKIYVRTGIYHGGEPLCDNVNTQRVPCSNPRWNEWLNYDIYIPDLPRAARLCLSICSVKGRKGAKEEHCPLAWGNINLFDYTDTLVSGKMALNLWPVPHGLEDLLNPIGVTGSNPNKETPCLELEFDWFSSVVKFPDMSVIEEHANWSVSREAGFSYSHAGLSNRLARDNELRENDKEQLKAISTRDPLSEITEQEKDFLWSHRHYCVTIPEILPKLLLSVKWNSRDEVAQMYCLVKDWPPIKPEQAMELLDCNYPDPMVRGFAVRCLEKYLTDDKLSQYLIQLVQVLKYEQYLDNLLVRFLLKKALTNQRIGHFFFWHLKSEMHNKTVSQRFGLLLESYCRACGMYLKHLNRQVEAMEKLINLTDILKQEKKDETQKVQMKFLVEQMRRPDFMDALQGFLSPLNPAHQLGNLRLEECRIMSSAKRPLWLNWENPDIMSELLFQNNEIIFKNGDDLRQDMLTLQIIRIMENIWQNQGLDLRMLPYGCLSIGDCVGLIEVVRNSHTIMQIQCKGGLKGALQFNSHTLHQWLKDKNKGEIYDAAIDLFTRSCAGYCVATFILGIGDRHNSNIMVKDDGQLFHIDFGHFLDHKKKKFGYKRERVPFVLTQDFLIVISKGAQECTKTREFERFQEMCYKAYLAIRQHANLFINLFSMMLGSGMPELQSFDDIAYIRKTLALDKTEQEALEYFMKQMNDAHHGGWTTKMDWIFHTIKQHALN
T2 sequence (P42338 with tags, fused parts or gaps limits assumed): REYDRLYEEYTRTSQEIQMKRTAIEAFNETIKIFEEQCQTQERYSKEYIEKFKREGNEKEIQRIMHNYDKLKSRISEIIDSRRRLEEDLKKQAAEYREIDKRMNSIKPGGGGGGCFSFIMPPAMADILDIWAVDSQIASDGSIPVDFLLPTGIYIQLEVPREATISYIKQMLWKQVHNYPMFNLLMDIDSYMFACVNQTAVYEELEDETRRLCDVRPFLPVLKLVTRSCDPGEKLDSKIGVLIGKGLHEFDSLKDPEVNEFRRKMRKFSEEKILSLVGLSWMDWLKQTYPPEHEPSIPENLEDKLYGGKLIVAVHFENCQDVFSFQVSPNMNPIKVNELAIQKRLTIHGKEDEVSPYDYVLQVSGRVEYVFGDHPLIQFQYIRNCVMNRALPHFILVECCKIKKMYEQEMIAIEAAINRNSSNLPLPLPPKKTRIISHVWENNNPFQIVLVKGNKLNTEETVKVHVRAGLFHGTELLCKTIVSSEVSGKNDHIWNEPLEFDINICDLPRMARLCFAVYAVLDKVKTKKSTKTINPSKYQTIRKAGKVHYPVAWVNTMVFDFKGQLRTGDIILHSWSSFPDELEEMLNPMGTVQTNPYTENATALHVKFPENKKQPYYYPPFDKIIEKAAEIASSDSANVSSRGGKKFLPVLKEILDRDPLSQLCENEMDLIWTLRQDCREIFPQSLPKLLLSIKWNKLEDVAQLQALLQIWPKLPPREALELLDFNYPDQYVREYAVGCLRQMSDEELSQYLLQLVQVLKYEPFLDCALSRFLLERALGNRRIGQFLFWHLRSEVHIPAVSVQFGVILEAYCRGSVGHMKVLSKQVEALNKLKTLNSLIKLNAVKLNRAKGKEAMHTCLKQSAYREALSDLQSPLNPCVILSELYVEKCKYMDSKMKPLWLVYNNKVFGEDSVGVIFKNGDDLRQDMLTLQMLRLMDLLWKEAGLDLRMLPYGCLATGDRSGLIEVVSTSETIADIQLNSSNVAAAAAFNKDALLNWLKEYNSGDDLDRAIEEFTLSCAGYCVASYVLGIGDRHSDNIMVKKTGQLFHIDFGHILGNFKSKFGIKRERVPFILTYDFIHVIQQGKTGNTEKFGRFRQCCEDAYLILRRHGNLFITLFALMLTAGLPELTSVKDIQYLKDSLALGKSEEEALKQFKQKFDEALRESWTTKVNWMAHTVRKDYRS
T3 sequence (O00329 with tags, fused parts or gaps limits assumed): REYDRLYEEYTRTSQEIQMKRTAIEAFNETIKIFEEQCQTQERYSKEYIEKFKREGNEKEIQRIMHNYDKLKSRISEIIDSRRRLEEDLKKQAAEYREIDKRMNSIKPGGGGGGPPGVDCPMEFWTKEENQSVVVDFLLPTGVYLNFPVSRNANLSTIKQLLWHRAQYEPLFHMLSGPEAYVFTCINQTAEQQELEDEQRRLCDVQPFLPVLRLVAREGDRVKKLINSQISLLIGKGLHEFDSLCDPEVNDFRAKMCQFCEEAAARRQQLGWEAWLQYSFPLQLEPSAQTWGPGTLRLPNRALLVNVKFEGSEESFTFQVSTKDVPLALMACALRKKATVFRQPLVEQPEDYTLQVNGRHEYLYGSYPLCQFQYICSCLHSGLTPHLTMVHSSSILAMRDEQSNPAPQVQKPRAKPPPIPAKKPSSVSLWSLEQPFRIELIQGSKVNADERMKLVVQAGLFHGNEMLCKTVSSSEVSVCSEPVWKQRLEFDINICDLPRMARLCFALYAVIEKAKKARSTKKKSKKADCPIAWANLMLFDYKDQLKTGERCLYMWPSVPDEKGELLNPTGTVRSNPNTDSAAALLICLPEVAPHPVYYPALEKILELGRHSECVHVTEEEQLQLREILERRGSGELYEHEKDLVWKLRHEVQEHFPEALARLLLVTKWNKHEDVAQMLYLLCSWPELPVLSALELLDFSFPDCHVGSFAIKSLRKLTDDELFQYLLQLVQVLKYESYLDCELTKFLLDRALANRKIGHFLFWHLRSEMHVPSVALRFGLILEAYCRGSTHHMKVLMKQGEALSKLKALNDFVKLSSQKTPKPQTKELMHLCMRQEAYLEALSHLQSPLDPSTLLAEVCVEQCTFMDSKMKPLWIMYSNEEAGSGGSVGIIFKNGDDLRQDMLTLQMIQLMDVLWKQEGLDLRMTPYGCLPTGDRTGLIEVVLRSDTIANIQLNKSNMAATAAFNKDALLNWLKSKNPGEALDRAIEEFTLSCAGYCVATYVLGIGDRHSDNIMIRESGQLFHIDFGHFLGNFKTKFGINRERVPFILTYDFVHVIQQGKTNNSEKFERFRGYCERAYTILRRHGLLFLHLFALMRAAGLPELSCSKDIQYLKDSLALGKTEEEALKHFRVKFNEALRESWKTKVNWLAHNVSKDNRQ

Compound `COC(=O)NC1(COc2ccc(-c3ccc4nc(C)c(-c5cnc(N)c(C(F)(F)F)c5)n4n3)cc2)COC1` [Example 115, (3-{4-[3-(6-Amino-5-trifluoromethyl-pyridin-3-yl)-2-methyl-imidazo[1,2-b]pyridazin-6-yl]-phenoxymethyl}-oxetan-3-yl)-carbamic acid methyl ester] returned a melting point of 202 to 204 °C. On PI3K alfa, the pIC50 is 6.53. Also, the pIC50 at PI3K beta was less than 5.04. Further, the negative logarithm of the IC50 (pIC50) on PI3K delta is 5.71. For the same compound, on PI3K gamma, the negative-log IC50 (pIC50) was 5.50.
`Cc1nc2ccc(-c3ccc(OCC4(NC(=O)C5CC5)COC4)cc3)nn2c1-c1cnc(N)c(C(F)(F)F)c1` [Example 110, Cyclopropanecarboxylic acid (3-{4-[3-(6-amino-5-trifluoromethyl-pyridin-3-yl)-2-methyl-imidazo[1,2-b]pyridazin-6-yl]-phenoxymethyl}-oxetan-3-yl)-amide]: the melting point lay in the range of 191 to 193 °C. For the same compound, the negative-log IC50 (pIC50) at PI3K alfa is 6.90. The pIC50 on PI3K beta was 5.09. The pIC50 at PI3K delta is 5.80. For the same compound, the pIC50 at PI3K gamma was 5.68.
For `Cc1nc2ccc(-c3ccc(OCC4(NC(=O)C(F)(F)F)COC4)cc3)nn2c1-c1cnc(N)c(C(F)(F)F)c1` [Example 116, N-(3-{4-[3-(6-Amino-5-trifluoromethyl-pyridin-3-yl)-2-methyl-imidazo[1,2-b]pyridazin-6-yl]-phenoxymethyl}-oxetan-3-yl)-2,2,2-trifluoro-acetamide] the same measures were 214 to 216 °C, 7.23, 5.37, 6.03 and 5.33.
As for `Cc1nc2ccc(-c3ccc(OCC4(N)COC4)cc3)nn2c1-c1cnc(N)c(C(F)(F)F)c1` [Example 111, 5-{6-[4-(3-Amino-oxetan-3-ylmethoxy)-phenyl]-2-methyl-imidazo[1,2-b]pyridazin-3-yl}-3-trifluoromethyl-pyridin-2-ylamine], the melting point is 198 to 200 °C. On PI3K alfa, the pIC50 is 6.88. In addition, the pIC50 on PI3K beta was 5.62. The pIC50 on PI3K delta is 6.05. The pIC50 at PI3K gamma was 5.92.
In the case of `COc1ccc(-c2ccc3nc(C)c(-c4cncc(C#N)c4)n3n2)cc1OC` [Example 6], the pIC50 at PI3K alfa was 6.34; on PI3K beta, 5.38; at PI3K delta, 5.57; on PI3K gamma, 5.73.
On to `COc1cc(-c2ccc3nc(C)c(-c4cnc(N)c(C(F)(F)F)c4)n3n2)ccc1OCCNC(=O)OC(C)C` [Example 79], for which the negative logarithm of the IC50 (pIC50) at PI3K alfa was 7.00; on PI3K beta it was less than 5.04; on PI3K delta it was 5.69; on PI3K gamma it was 6.19.
